Reference: BindingDB's records for doi:10.7270/Q2F47MKR (Burnham Center For Chemical Genomics, 2010)

Assay: blockers of orphan receptor GPR35 – imaging, image-based, set 2, SAR follow-up (AID 2480)
[1] = inactive by the depositor's call

Structure (SMILES) | IC50 | IC50 [1]
O=C(Nc1ccc2nc(SCc3ccc(Cl)c(Cl)c3)sc2c1)c1ccccc1Br | > 32000 nM | –
O=C(CCCN1C(=O)/C(=C/c2cccs2)SC1=S)Nc1ccc(O)cc1 | – | 10700 nM
COc1ccc(Cn2c(SCC(=O)Nc3ccc(C)c(C)c3)nc3ccsc3c2=O)cc1 | > 32000 nM | –
CCOc1ccc(NC(=O)CSc2nc3ccsc3c(=O)n2Cc2ccc(C(=O)O)cc2)cc1 | – | 12500 nM
CCC(Sc1nc2ccsc2c(=O)n1Cc1ccc(C(=O)O)cc1)C(=O)Nc1ccc(C)c(Cl)c1 (configuration not stated) | > 32000 nM | –
Cc1ccc(Cn2ncc3c(N4CCN(c5ccc(C)cc5)CC4)ncnc32)cc1 | – | 17700 nM
Clc1ccc(Cn2ncc3c(N4CCN(c5ccccc5)CC4)ncnc32)cc1 | 7170 nM | –
Clc1ccccc1Cn1ncc2c(N3CCN(c4ccccc4)CC3)ncnc21 | > 32000 nM | –
Cc1ccc(C)c(OCCC(=O)NCCc2ccc(S(N)(=O)=O)cc2)c1 | > 32000 nM | –
c1ccc(-c2n[n+](-c3ccccc3)c(-c3ccccc3)s2)cc1 | > 32000 nM | –
c1ccc(Cn2ncc3c(N4CCN(c5ccccc5)CC4)ncnc32)cc1 [1-(phenylmethyl)-4-(4-phenylpiperazin-1-yl)pyrazolo[3,4-d]pyrimidine] | – | 17000 nM
Clc1ccc(Cn2ncc3c(N4CCN(c5cccc(Cl)c5)CC4)ncnc32)cc1 [1-[(4-chlorophenyl)methyl]-4-[4-(3-chlorophenyl)piperazin-1-yl]pyrazolo[3,4-d]pyrimidine] | > 32000 nM | –
COc1ccc(-c2nnc(-c3cccnc3)o2)cc1 [2-(4-methoxyphenyl)-5-pyridin-3-yl-1,3,4-oxadiazole] | > 32000 nM | –
COc1ccc(/C=C2\SC(=S)N(CCCC(=O)Nc3ccc(C(=O)O)c(O)c3)C2=O)cc1OC [4-[4-[(5Z)-5-[(3,4-dimethoxyphenyl)methylidene]-4-oxo-2-sulfanylidene-1,3-thiazolidin-3-yl]butanoylamino]-2-hydroxybenzoic acid] | 151 nM | –
Cc1ccccc1OCCC(=O)NCCc1ccc(S(N)(=O)=O)cc1 [MLS-0213188.0001] | > 32000 nM | –
Cc1ccc(OCCC(=O)NCCc2ccc(S(N)(=O)=O)cc2)cc1 [MLS-0213737.0001] | > 32000 nM | –
Cc1c(C(=O)Nc2ccc3c(c2)OCCO3)sc2ncnc(N3CCCCC3C)c12 (configuration not stated) [MLS-0359029.0001] | > 32000 nM | –
CCOC(=O)c1ccc(NC(=O)CCCN2C(=O)/C(=C/c3ccc(C)cc3)SC2=S)cc1 [MLS-0435416.0001] | 2600 nM | –

Further compounds by falling IC50, results first:

IC50 | Structure (SMILES) | IC50 [1]
6100 nM | Cc1nc(N2CCC(C)CC2)c2c(C)c(C(=O)Nc3ccc(C)c(F)c3)sc2n1 [MLS-0244945.0001] | –
5170 nM | Cn1cc(/C=C/c2cc[n+](C)cc2)c2cc(Cl)ccc21 [5-chloranyl-1-methyl-3-[(E)-2-(1-methylpyridin-1-ium-4-yl)ethenyl]indole;hydroiodide] | –
4990 nM | C=CCn1c(C)c(/C=C/c2cc[n+](C)cc2)c2ccccc21 [2-methyl-3-[(E)-2-(1-methyl-4-pyridin-1-iumyl)ethenyl]-1-prop-2-enylindole;iodide] | –
2650 nM | Cc1ccc(Cn2ncc3c(N4CCN(c5ccccc5C)CC4)ncnc32)cc1 [1-(4-methylbenzyl)-4-[4-(2-methylphenyl)-1-piperazinyl]-1H-pyrazolo[3,4-d]pyrimidine] | –
2360 nM | Cc1ccc2[nH]c(C)c(/C=C/c3cc[n+](C)cc3)c2c1 | –
2230 nM | CC(C)(C)c1ccc(OCCC(=O)NCCc2ccc(S(N)(=O)=O)cc2)cc1 [MLS001151090] | –
2220 nM | Cc1ccccc1N1CCN(c2ncnc3c2cnn3Cc2ccc(Cl)cc2)CC1 [1-[(4-chlorophenyl)methyl]-4-[4-(2-methylphenyl)-1-piperazinyl]pyrazolo[3,4-d]pyrimidine] | –
1680 nM | O=C(CCCN1C(=O)/C(=C\c2ccccc2)SC1=S)Nc1ccc(C(=O)O)cc1 [4-[[1-oxo-4-[(5E)-4-oxo-5-(phenylmethylene)-2-sulfanylidene-3-thiazolidinyl]butyl]amino]benzoic acid] | –
1610 nM | O=C(Nc1ccc2nc(SCc3ccccc3)sc2c1)c1ccccc1C(=O)N1CCOCC1 [2-[4-morpholinyl(oxo)methyl]-N-[2-(phenylmethylthio)-1,3-benzothiazol-6-yl]benzamide] | –
1600 nM | O=C(CCCN1C(=O)/C(=C\c2ccccc2)SC1=S)Nc1cccc(C(=O)O)c1 [3-[4-(5-Benzylidene-4-oxo-2-thioxo-thiazolidin-3-yl)-butyrylamino]-benzoic acid] | –
1600 nM | O=C(CCCN1C(=O)S/C(=C/c2ccccc2)C1=S)Nc1ccc(C(=O)O)cc1 [MLS001167691] | –
1420 nM | Cc1ccc(/C=C2\SC(=S)N(CCCC(=O)Nc3ccc(O)cc3)C2=O)cc1 [MLS000777252] | –
1330 nM | CC(C)c1ccc(NC(=O)CSc2nc3ccsc3c(=O)n2Cc2ccc(C(=O)O)cc2)cc1 [4-[[4-oxo-2-[2-oxo-2-(4-propan-2-ylanilino)ethyl]sulfanylthieno[3,2-d]pyrimidin-3-yl]methyl]benzoic acid] | –
1170 nM | O=C(CCCN1C(=O)S/C(=C/C=C/c2ccccc2)C1=O)Nc1ccc(C(=O)O)cc1 [4-[4-[(5E)-2,4-dioxo-5-[(E)-3-phenylprop-2-enylidene]-1,3-thiazolidin-3-yl]butanoylamino]benzoic acid] | –
1170 nM | O=C(CCCN1C(=O)S/C(=C\C=C\c2ccccc2)C1=O)Nc1ccc(C(=O)O)cc1 [MLS000948015] | –
1160 nM | COc1ccc(/C=C2\SC(=S)N(CCCC(=O)Nc3ccc(O)cc3)C2=O)cc1 [MLS-0304362.0001] | –
983 nM | O=C(CCCN1C(=O)/C(=C/c2ccc3c(c2)OCO3)SC1=S)Nc1cccc(C(=O)O)c1 [3-[[4-[(5Z)-5-(1,3-benzodioxol-5-ylmethylidene)-4-oxo-2-sulfanylidene-3-thiazolidinyl]-1-oxobutyl]amino]benzoic acid] | –
651 nM | COc1cccc(/C=C2\SC(=S)N(CCCC(=O)Nc3ccc(C(=O)O)cc3)C2=O)c1 [4-[4-[(5Z)-5-[(3-methoxyphenyl)methylidene]-4-oxo-2-sulfanylidene-1,3-thiazolidin-3-yl]butanoylamino]benzoic acid] | –
607 nM | COc1ccc(/C=C2\SC(=S)N(CCCC(=O)Nc3cccc(C(=O)O)c3)C2=O)cc1OC [3-[4-[(5Z)-5-[(3,4-dimethoxyphenyl)methylidene]-4-oxidanylidene-2-sulfanylidene-1,3-thiazolidin-3-yl]butanoylamino]benzoic acid] | –
554 nM | O=C(Nc1ccc2nc(SCc3ccc(Cl)cc3)sc2c1)c1ccccc1C(=O)N1CCOCC1 | –
300 nM | O=C(CCCN1C(=O)/C(=C/c2ccc3c(c2)OCO3)SC1=S)Nc1ccc(C(=O)O)c(O)c1 [4-[[4-[(5Z)-5-(1,3-benzodioxol-5-ylmethylidene)-4-oxo-2-sulfanylidene-3-thiazolidinyl]-1-oxobutyl]amino]-2-hydroxybenzoic acid] | –
295 nM | O=C(CCCN1C(=O)/C(=C/c2ccccc2)SC1=S)Nc1ccc(C(=O)O)c(O)c1 [4-[4-[(5Z)-5-benzylidene-4-oxo-2-sulfanylidene-1,3-thiazolidin-3-yl]butanoylamino]-2-hydroxybenzoic acid] | –
240 nM | Cc1ccc(/C=C2\SC(=S)N(CCCC(=O)Nc3cccc(C(=O)O)c3)C2=O)cc1 [MLS001034563] | –
105 nM | CC(/C=C1\SC(=S)N(CCCC(=O)Nc2ccc(C(=O)O)cc2)C1=O)=C\c1ccccc1 [4-[4-[(5Z)-5-[(E)-2-methyl-3-phenyl-prop-2-enylidene]-4-oxidanylidene-2-sulfanylidene-1,3-thiazolidin-3-yl]butanoylamino]benzoic acid] | –
